Experiments:
[1] = target: T1, human recombinant histamine H1 receptor (Homo sapiens, UniProt P35367); experiment: Histamine H1 radioligand binding ([3H]Pyrilamine); conditions: read-out: Inhibition of ligand binding, Hist. H1
T1 construct: expressed in transfected cells; host or cells: CHO cells
Outline: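 Receptor expressed in CHO cells, assayed in 50 mM Tris-HCl pH 7.4 with 2 mM MgCl2, 100 mM NaCl, 250 mM sucrose. Compounds tested at 1 μM in 1% DMSO; non-specific binding set with 1 μM pyrilamine. Filter-bound radioactivity counted; values are percent inhibition of specific binding.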

[2] = target: T2, human recombinant adrenergic α2A receptor (Homo sapiens, UniProt P08913); experiment: Adrenergic α2A radioligand binding ([3H]MK-912); set-up: Inhibition of ligand binding, Adren. alpha2A: concentration or dose not given beside the values; conditions: percent inhibition of specific binding
T2 construct: expressed in transfected cells; host or cells: insect Sf9 cells
T2 sequence (P08913 1-465): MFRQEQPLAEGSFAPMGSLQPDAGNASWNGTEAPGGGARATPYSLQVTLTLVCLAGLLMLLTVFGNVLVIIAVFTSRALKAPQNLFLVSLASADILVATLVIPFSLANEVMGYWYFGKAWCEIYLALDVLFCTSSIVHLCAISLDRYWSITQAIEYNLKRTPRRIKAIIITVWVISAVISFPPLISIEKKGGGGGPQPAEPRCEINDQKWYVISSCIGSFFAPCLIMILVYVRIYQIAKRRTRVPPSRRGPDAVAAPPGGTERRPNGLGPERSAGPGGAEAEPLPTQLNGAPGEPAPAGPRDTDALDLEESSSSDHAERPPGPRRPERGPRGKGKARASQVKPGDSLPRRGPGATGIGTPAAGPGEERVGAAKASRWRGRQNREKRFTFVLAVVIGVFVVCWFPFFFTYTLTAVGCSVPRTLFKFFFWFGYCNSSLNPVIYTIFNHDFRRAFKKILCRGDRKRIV
Outline: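 Membranes from Sf9 cells expressing the receptor were incubated with 1 nM [3H]MK-912 for 60 minutes at 25° C in 50 mM Tris-HCl pH 7.4, 12.5 mM MgCl2, 2 mM EDTA. 10 μM WB-4101 defined non-specific binding. Values are percent inhibition of specific bound radioactivity after filtration.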

[3] = target: T3, human recombinant serotonin (5-Hydroxytryptamine) 5-HT2C receptor (Homo sapiens, UniProt P28335); experiment: Serotonin 5-HT2C radioligand binding ([3H]Mesulergine); set-up: Inhibition of ligand binding, Ser. 5-HT2C: concentration or dose not given beside the values; conditions: percent inhibition of specific binding
T3 construct: expressed in transfected cells; host or cells: CHO-K1 cells
T3 sequence (P28335 33-458): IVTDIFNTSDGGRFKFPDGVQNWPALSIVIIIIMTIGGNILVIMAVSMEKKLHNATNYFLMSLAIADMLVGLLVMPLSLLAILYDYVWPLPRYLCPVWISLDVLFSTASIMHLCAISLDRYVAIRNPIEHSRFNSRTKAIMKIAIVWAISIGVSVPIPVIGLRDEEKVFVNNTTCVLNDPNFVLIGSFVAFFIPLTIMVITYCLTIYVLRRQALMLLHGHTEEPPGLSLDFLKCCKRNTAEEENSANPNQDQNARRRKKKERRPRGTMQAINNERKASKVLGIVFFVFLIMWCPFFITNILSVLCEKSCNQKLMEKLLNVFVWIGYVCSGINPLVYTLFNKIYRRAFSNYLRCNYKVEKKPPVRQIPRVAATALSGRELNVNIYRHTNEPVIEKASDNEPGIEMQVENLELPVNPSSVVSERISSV
Experimental: Compounds of the invention were incubated with 1 nM [^3H]Mesulergine for 60 minutes at 25° C. Non-specific binding was estimated in the presence of 1 μM Mianserin. Receptor proteins were filtered and washed, the filters were then counted to determine [^3H]Mesulergine specifically bound. […] Biochemical assay results are presented as the percent inhibition of specific binding in Table 6.

T1 sequence (P35367 whole entry): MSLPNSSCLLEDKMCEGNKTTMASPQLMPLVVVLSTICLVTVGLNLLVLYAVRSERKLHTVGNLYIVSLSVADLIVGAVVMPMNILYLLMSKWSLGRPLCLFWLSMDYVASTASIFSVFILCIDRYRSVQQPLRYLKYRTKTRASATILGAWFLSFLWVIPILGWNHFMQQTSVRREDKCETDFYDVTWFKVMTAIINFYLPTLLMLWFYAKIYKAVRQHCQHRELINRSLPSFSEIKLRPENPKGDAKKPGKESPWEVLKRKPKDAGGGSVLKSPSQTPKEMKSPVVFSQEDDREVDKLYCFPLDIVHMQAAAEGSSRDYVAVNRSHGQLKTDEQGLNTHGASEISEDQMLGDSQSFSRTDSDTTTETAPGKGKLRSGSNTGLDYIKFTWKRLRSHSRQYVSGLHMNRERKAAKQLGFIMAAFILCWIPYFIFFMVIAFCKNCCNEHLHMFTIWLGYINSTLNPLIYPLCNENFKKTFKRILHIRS

Compound	inhibition at 1 µM [1] [%]	Inhibition of ligand binding, Adren. alpha2A [2] [%]	Inhibition of ligand binding, Ser. 5-HT2C [3] [%]
CN1CCc2c(c3cc(Cl)ccc3n2CCc2ccc(C(F)(F)F)nc2)C1 [Compound 250]	102	91	79
Cc1ccc2c(c1)c1c(n2CCc2ccc(C)nc2)CCN(C)C1 [Dimebon, dimebon, reference compound]	94	91	86

Reference: patent US9096591B2, “Tetracyclic compounds” (Medivation Technologies, Inc., priority 2007, dated 2015)
